Read-outs that look alike come from different tables or passages of the source.
Assays:
Format in all cases: cell-based
EML4-ALK-BaF3 = target: T1, EML4-ALK-BaF3 (Homo sapiens, UniProt Q9UM73); experiment: Growth inhibition of EML4-ALK transformed BaF3 cells (MTS); settings: EML4-ALK-BaF3 cells, 48 hours, MTS
T1 construct: expressed in transfected cells; host or cells: Ba/F3 cells; the other entry of the earlier key: EML4 (Q9HC35, Echinoderm microtubule-associated protein-like 4)
Experimental: (§1) If compounds can inhibit the activity of ALK kinase or the activity of ALK signaling pathway, they can inhibit the growth of ALK transformed Ba/F3 cells. […] The broad-spectrum toxicity of compounds can be evaluated by determining the effect of the compounds on the growth of wild type BaF3 cells.
(§2) 1) Medium: DMEM (Dulbecco's modified eagle medium) or RPMI1640 (containing 10% fetal bovine serum, 100 μg/mL ampicillin, 100 μg/mL streptomycin).)
(§3) Reagents: MTS solution (2 mg/mL MTS (3-(4,5-dimethylthiazol-2-yl)-5-(3-carboxymethoxyphenyl)-2-(4-sulfophenyl)-2H-tetrazolium, inner salt); 100 μg/mL PES ([…])).
(§4) 3) Test of compound: Transformed Ba/F3 cells (EML4-ALK-BaF3, EML4-ALK(L1196M)-BaF3, NPM-ALK-BaF3) (2×10^4/well) were distributed into 96-well plates, with volume of cell sap of 90 μL, 10 μL of compounds in gradient concentration (the highest concentration 10 was μM, followed by 1/3 step by step dilution, a total of 8 concentrations were set, the system contained 0.1% DMSO (dimethyl sulfoxide)). The cell plates mixed with compounds were cultured in a cell incubator (37° C.; 5% CO2) for 48 hours, and the added 20 μL of MTS reaction solution, mixed and incubated in cell incubator (37° C.; 5% CO2) for 1-4 hours. The OD value at a wavelength of 490 nm was measured using eliasa (VARIOSKAN FLASH, Thermo). Three parallels were set up for each group, with a final concentration of 0.1% DMSO as negative control, and with medium without cells and compounds as blank control.
(§5) 4) Calculation of IC50 value: the semi inhibitory concentration of the compound acting on the cells was calculated using GradPad Prism 5 software according to the cell inhibitory rate measured.

wild type BaF3 = experiment: Growth inhibition of wild type BaF3 cells (broad-spectrum toxicity); settings: Mus musculus, BaF3, 48 h, MTS
Experimental: (§6) The activity of compounds against ALK kinase was evaluated by inhibiting the growth of cellular ALK kinase EML4-ALK-BaF3, EML4-ALK (L1196M)-BaF3, NPM-ALK-BaF3, and wild type BaF3 (Proc. Natl. Acad. Sci. USA., 2006, 103, 3153-8.) The growth of cellular ALK kinase EML4-ALK-BaF3, EML4-ALK(L1196M)-BaF3, and NPM-ALK-BaF3 depends on their kinase activity. If compounds can inhibit the activity of ALK kinase or the activity of ALK signaling pathway, they can inhibit the growth of ALK transformed Ba/F3 cells. […] The broad-spectrum toxicity of compounds can be evaluated by determining the effect of the compounds on the growth of wild type BaF3 cells.
as §2, §3
as §4, with “control. The inhibition rate of cell growth was calculated by the following formula: Cell inhibition rate %=1−(OD experimental group−OD blank group)/(OD negative group−OD blank group)*100%” for “control.”
as §5

EML4-ALK (L1196M)-BaF3 = target: T2, EML4-ALK (L1196M)-BaF3 (Homo sapiens, UniProt Q9UM73, L1196M); experiment: Growth inhibition of EML4-ALK (L1196M) transformed BaF3 cells (MTS); settings: 48 hours
T2 construct: expressed in transfected cells; host or cells: Ba/F3 cells; the other entry of the earlier key: EML4 (Q9HC35, Echinoderm microtubule-associated protein-like 4)
Experimental: as §1, §2, §3, §4, §5

NPM-ALK-BaF3 = target: T3, NPM-ALK-BaF3 (Homo sapiens, UniProt Q9UM73); experiment: Growth inhibition of NPM-ALK transformed BaF3 cells (MTS); settings: 48 hours, Table 11
T3 construct: expressed in transfected cells; host or cells: Ba/F3 cells; the other entry of the earlier key: NPM1 (P06748, Nucleophosmin)
Experimental: as §6, §2, §3
as §4, with “control. The inhibition rate of cell growth was calculated by the following formula: Cell inhibition rate %=1−(OD experimental group−OD blank group)/(OD negative group−OD blank group)*100%” for “control.”
as §5

[1] = Table 11, read-out: EML4-ALK (L1196M) (IC50 nM)

IC50 (EML4-ALK-BaF3; Table 11) [nM]	IC50 (EML4-ALK (L1196M)-BaF3; [1]) [nM]	IC50 (NPM-ALK-BaF3) [nM]	IC50 (EML4-ALK-BaF3; Table 12) [nM]	IC50 (EML4-ALK (L1196M)-BaF3; Table 12, read-out: L1196M (IC50 nM)) [nM]	Structure (SMILES)	IC50 (wild type BaF3; Table 11) [nM]	IC50 (wild type BaF3; Table 12) [nM]
1370	1800	703			COc1cc(N2CCN(C)CC2)ccc1Nc1nc(Nc2ccccc2SC)c2[nH]ccc2n1 [IA-1]	~2790	
649	761	1030			CSc1ccccc1Nc1nc(Nc2ccc(N3CCC(O)CC3)cc2)nc2cc[nH]c12 [IA-2]	1520	
2420	6630	12900			CSc1ccccc1Nc1nc(Nc2ccc(S(N)(=O)=O)cc2)nc2cc[nH]c12 [IA-3]	7710	
~895	~2410	1450			COc1cc(N2CCN(C)CC2)ccc1Nc1nc(Nc2ccccc2SC(C)C)c2[nH]ccc2n1 [IB-1]	~2800	
786	1740	1770			CC(C)Sc1ccccc1Nc1nc(Nc2ccc(N3CCC(O)CC3)cc2)nc2cc[nH]c12 [IB-2]	1920	
4220	8700	8830			CC(C)Sc1ccccc1Nc1nc(Nc2ccc(S(N)(=O)=O)cc2)nc2cc[nH]c12 [IB-3]	> 10000	
3930	~7250	~4560			COc1cc(N2CCN(C)CC2)ccc1Nc1nc(Nc2ccccc2S(C)(=O)=O)c2[nH]ccc2n1 [IC-1]	> 10000	
3680	~6860	~4910			COc1cc(N2CCC(N3CCN(C)CC3)CC2)ccc1Nc1nc(Nc2ccccc2S(C)(=O)=O)c2[nH]ccc2n1 [IC-2]	~8770	
> 10000	> 10000	> 10000			CS(=O)(=O)c1ccccc1Nc1nc(Nc2ccc(N3CCC(O)CC3)cc2)nc2cc[nH]c12 [IC-3]	> 10000	
> 10000	> 10000	> 10000			CS(=O)(=O)c1ccccc1Nc1nc(Nc2ccc(S(N)(=O)=O)cc2)nc2cc[nH]c12 [IC-4]	> 10000	
4080	~3350	5260			CN1CCN(c2ccc(Nc3nc(Nc4ccccc4S(C)(=O)=O)c4[nH]ccc4n3)cc2)CC1 [IC-5]	4590	
477	737	796			COc1cc(N2CCN(C)CC2)ccc1Nc1nc(Nc2ccccc2S(=O)(=O)C(C)C)c2[nH]ccc2n1 [ID-1]	~8390	
1170	2030	~2850			CC(C)S(=O)(=O)c1ccccc1Nc1nc(Nc2ccc(N3CCN(C)CC3)cc2)nc2cc[nH]c12 [ID-2]	~8310	
2860	6150	~8930			CC(C)S(=O)(=O)c1ccccc1Nc1nc(Nc2ccc(N3CCC(O)CC3)cc2)nc2cc[nH]c12 [ID-4]	> 10000	
> 10000	> 10000	> 10000			CC(C)S(=O)(=O)c1ccccc1Nc1nc(Nc2ccc(S(N)(=O)=O)cc2)nc2cc[nH]c12 [ID-5]	> 10000	
1510	~2650	1020			Cc1cc(Nc2nc(Nc3ccccc3S(=O)(=O)C(C)C)c3[nH]ccc3n2)c(OC(C)C)cc1C1CCN(C)CC1 [ID-6]	~2840	
544	~1080	~1170			COc1cc(C2CCN(C)CC2)c(C)cc1Nc1nc(Nc2ccccc2S(=O)(=O)C(C)C)c2[nH]ccc2n1 [ID-7]	~2960	
5170	5680	> 10000			CC(C)S(=O)(=O)c1ccccc1Nc1nc(Nc2cnn(C3CCN(C)CC3)c2)nc2cc[nH]c12 [ID-8]	> 10000	

IC50 (EML4-ALK-BaF3; Table 11) [nM]	IC50 (EML4-ALK (L1196M)-BaF3; [1]) [nM]	IC50 (NPM-ALK-BaF3) [nM]	IC50 (EML4-ALK-BaF3; Table 12) [nM]	IC50 (EML4-ALK (L1196M)-BaF3; Table 12, read-out: L1196M (IC50 nM)) [nM]	Structure (SMILES)	IC50 (wild type BaF3; Table 11) [nM]	IC50 (wild type BaF3; Table 12) [nM]
1470	1160	1800			COC(=O)c1ccccc1Nc1nc(Nc2ccc(N3CCN(C)CC3)cc2OC)nc2cc[nH]c12 [IG-1]	2340	
1200	1190	1430			COC(=O)c1ccccc1Nc1nc(Nc2ccc(N3CCC(N4CCN(C)CC4)CC3)cc2OC)nc2cc[nH]c12 [IG-2]	1800	
2720	5040	6930			COC(=O)c1ccccc1Nc1nc(Nc2ccc(N3CCC(O)CC3)cc2)nc2cc[nH]c12 [IG-3]	6870	
5110	4940	6100			COC(=O)c1ccccc1Nc1nc(Nc2ccc(S(N)(=O)=O)cc2)nc2cc[nH]c12 [IG-4]	8510	
7800	> 10000	> 10000			COC(=O)c1ccccc1Nc1nc(Nc2ccc(N3CCOCC3)cc2)nc2cc[nH]c12 [IG-5]	> 10000	
1370	1520	1740			COC(=O)c1ccccc1Nc1nc(Nc2ccc(N3CCN(C)CC3)cc2)nc2cc[nH]c12 [IG-6]	~3140	
286	409	1210			COC(=O)c1ccccc1Nc1nc(Nc2ccc(N3CCC(N4CCCC4)CC3)cc2OC)nc2cc[nH]c12 [IG-7]	~994	
1830	1530	1670			COC(=O)c1ccccc1Nc1nc(Nc2ccc(OCc3ccccn3)cc2)nc2cc[nH]c12 [IG-8]	3860	
> 10000	> 10000	> 10000			COC(=O)c1ccccc1Nc1nc(Nc2ccc(N3CCC(O)CC3)cc2OC(C)C)nc2cc[nH]c12 [IG-9]	> 10000	
9800	> 10000	19600			CCOc1cc(N2CCC(O)CC2)ccc1Nc1nc(Nc2ccccc2C(=O)OC)c2[nH]ccc2n1 [IG-10]	> 10000	
6500	4130	4080			COC(=O)c1ccccc1Nc1nc(Nc2ccc(C(=O)N3CCC(N4CCN(C)CC4)CC3)cc2OC)nc2cc[nH]c12 [IG-12]	~7740	
> 10000	> 10000	> 10000			COC(=O)c1ccccc1Nc1nc(Nc2ccc(N3CCN(C)CC3)cn2)nc2cc[nH]c12 [IG-13]	> 10000	
~1260	884	1390			COC(=O)c1ccccc1Nc1nc(Nc2cc(C)c(C3CCN(C)CC3)cc2OC)nc2cc[nH]c12 [IG-14]	~2550	
1370	1390	1740			COC(=O)c1ccccc1Nc1nc(Nc2ccc(N3CCOCC3)cc2OC)nc2cc[nH]c12 [IG-16]	2350	
7610	~9460	7670			COC(=O)c1ccccc1Nc1nc(Nc2ccc(C(=O)N3CCOCC3)cc2OC)nc2cc[nH]c12 [IG-17]	9390	
			> 10000	> 10000	Cn1ccc2nc(Nc3ccc(S(N)(=O)=O)cc3)nc(NCc3ccccc3S(C)(=O)=O)c21 [IIK-4]		> 10000
> 10000	> 10000	> 10000			CN1CCN(c2ccc(Nc3nc(NCc4ccccc4S(C)(=O)=O)c4[nH]ccc4n3)cc2)CC1 [IN-5]		
